Source: patent US10925890B2, “Use of dextran sulfate” (TX MEDIC AB, priority 2014, dated 2021)
“Also recorded” adds a separate entry of the source.

Tests used:
[1] = system: Critical Hind-Limb Ischemia Mouse Model; experiment: Immunohistochemistry and capillaries density (CD34, SMA, FITC-dextran), mouse hind-limb ischemia; format: in vivo
Method: Mice were sacrificed at study termination on day 36. Fluorescein isothiocyanate (FITC)—dextran 500000 Da conjugate 10 mg/ml was injected i.v. in a dose of 200 μl per mouse 5 minutes before sacrifice to all animals. Quadriceps muscle was dissected into coronary part. The muscle was fixed in 2.5% fresh paraformaldehyde (pH 7.4) for 24 hours and was then embedded in the paraffin for smooth muscle actin (SMA) with mouse monoclonal antibodies (anti-SMA Ab-1, clone 1A4, 1:800, Thermo scientific) and CD34 with anti CD34 (1:200, Cedralene) immunostaining. Paraffin embedding was done according the standard embedding procedure.
Stained sections were evaluated and photographed by fluorescence microscope (E600; Nikon, Tokyo, Japan) equipped with plan fluor objectives connected to a CCD camera (DMX1200F; Nikon). […] Digital images were collected and analyzed using Image Pro+ software. Four sections of muscle samples were taken from the same areas of eight animals from groups 1M, 3M and 4M. The area of blood vessels was measured. Density was expressed as the mean number of capillaries per field of view. Total vessels represent all blood vessels in the measured area.

[2] = system: rat model of myocardial infarction; experiment: SMA vascular density count, rat myocardial infarction model; format: in vivo; conditions: group 2M, 15 mg/kg 3 times/week for 3 weeks; 35 days after MI induction; infarct region
Method: (§1) On the day of surgery the animals were anesthetized with a combination of 90 mg/kg ketamine and 10 mg/kg xylazine. In order to induce MI, under anesthesia and analgesia, the rat chest was opened by left thoracotomy, the pericardium was removed and the proximal left coronary artery was permanently occluyded with an intramural stitch (Circulation 117, 1388-1396 (2008)). Two hours post surgery, each animal in all treated groups were injected s.c. with dextran sulfate or saline vehicle according to Table 11.
For the purpose of MI size identification, Masson's Trichrome Staining was used. Nine hearts of a treated (2M) group and eight of the untreated (1M) group were sectioned transversely into five sections that were imbedded in paraffin. Five paraffin sections at 5 μm were performed on a Lika microtome. All sections were stained according to standard Masson's trichrome protocol. The sections were visualized in a computer-imaging system and infarct size was marked and calculated using the ImageJ program. Infarct size was expressed as percentage of infarct area (unstained) versus the total left ventricle area. For each animal, five serial sections including one containing the ligature were analyzed and the mean value of all sections for each heart was calculated. Immunohistobchemistry marker (Smooth Muscle Actin—SMA) was used for evaluating the vascular density count. […]

[3] = system: Critical Hind-Limb Ischemia Mouse Model; experiment: In vivo assessment of limb function, mouse hind-limb ischemia
Method: Semi-quantitative assessment of impaired use of the ischemic limb was performed once a week post-surgery using the following scale, see Table 7.
Limb function was graded as “Not applicable” in case of partial or full limb amputation. In such case blood flow measurements was not included in the statistical analysis.

tMCAO rat-stroke model = experiment: Brain immunostaining: capillaries density (SMA) and GFAP, tMCAO rat; format: in vivo
Source text: On day 30 after MCAO, rats were anesthetized by ketamine/xylazine were transcardiacly perfused by buffered paraformaldehyde (PFA) 4%. The brains were collected fixed in 4% buffered PFA for immunostaining and histological evaluation.
Two sections of brain samples were taken from the same areas of six animals from groups 1M and 3M. Capillaries were counted under the microscope in a total of three random fields from each section. Density was expressed as the mean number of capillaries per field of view.

[4] = system: rat model of myocardial infarction; experiment: Infarct size (Masson's trichrome), rat myocardial infarction model; format: in vivo; conditions: 35 days after MI induction
Method: The myocardial infarction model in rat involved ligations of the left coronary artery permanently with an intramural stitch. The surgery caused obstruction of the blood flow and subsequently to severe ischemic damage and cardiac walls infarct.
as §1
On day 36 after MI induction, the rats were sacrificed by CO2 inhalation and the hearts were harvested and fixed in 4% buffered Formalin solution. […]
For the purpose of MI size identification, Masson's Trichrome Staining was used. […] The sections were visualized in a computer-imaging system and infarct size was marked and calculated using the ImageJ program. Infarct size was expressed as percentage of infarct area (unstained) versus the total left ventricle area. For each animal, five serial sections including one containing the ligature were analyzed and the mean value of all sections for each heart was calculated. […]

[5] = day 7 (before treatment), group 2M, 10 mg/kg 3 times/week
[6] = day 7 (before treatment), group 3M, 30 mg/kg 3 times/week
[7] = day 7 (before treatment), group 4M, 30 mg/kg 1 time/week
[8] = day 35, group 2M, 10 mg/kg s.c. 3 times/week
[9] = day 35, group 3M, 30 mg/kg s.c. 3 times/week
[10] = day 35, group 4M, 30 mg/kg s.c. 1 time/week

Dextran sulfate
Angiogenesis in ischemic (right) vs non-ischemic (left) limb ([1]; CD34 and FITC-dextran capillaries density, FIG. 4): only induce angiogenesis in the ischemic tissue
Number of CD34 positive capillaries compared to control group ([1]; groups 3M and 4M (30 mg/kg) vs 1M, day 35): larger
FITC-dextran staining of capillaries (functional capillaries) ([1]; groups 3M and 4M, ischemic limb): functioning and active
SMA staining, capillaries formation ([1]; treated groups vs control): same increase in capillaries formations
SMA capillary density compared to vehicle control [2]: higher SMA capillary density; also recorded: trend of increase in capillaries density
Limb function score (0-3, 3 worst) ([3]; 10 or 30 mg/kg, 1x/w or 3x/w from day 8, from day 21 and onward, two-way ANOVA): significant improvement
Incidence of mice with limb function score 0 [3, 5]: 0.0%
Incidence of mice with limb function score 1 [3, 5]: 0.0%
Incidence of mice with limb function score 2 [3, 5]: 21.4%
Incidence of mice with limb function score 3 [3, 5]: 79.6%
Incidence of mice with limb function score 0 [3, 6]: 0.0%
Incidence of mice with limb function score 1 [3, 6]: 0.0%
Incidence of mice with limb function score 2 [3, 6]: 21.4%
Incidence of mice with limb function score 3 [3, 6]: 79.6%
Incidence of mice with limb function score 0 [3, 7]: 0.0%
Incidence of mice with limb function score 1 [3, 7]: 0.0%
Incidence of mice with limb function score 2 [3, 7]: 7.1%
Incidence of mice with limb function score 3 [3, 7]: 92.9%
Incidence of mice with limb function score 0 [3, 8]: 50.0%
Incidence of mice with limb function score 1 [3, 8]: 42.9%
Incidence of mice with limb function score 2 [3, 8]: 7.1%
Incidence of mice with limb function score 3 [3, 8]: 0.0%
Incidence of mice with limb function score 0 [3, 9]: 72.4%
Incidence of mice with limb function score 1 [3, 9]: 21.5%
Incidence of mice with limb function score 2 [3, 9]: 7.1%
Incidence of mice with limb function score 3 [3, 9]: 0.0%
Incidence of mice with limb function score 0 [3, 10]: 69.2%
Incidence of mice with limb function score 1 [3, 10]: 30.8%
Incidence of mice with limb function score 2 [3, 10]: 0.0%
Incidence of mice with limb function score 3 [3, 10]: 0.0%
Number of SMA capillaries with diameter less than 30 μm (tMCAO rat-stroke model; 15 mg/kg daily vs vehicle control): Improvement
Number of capillaries compared to vehicle treated control (tMCAO rat-stroke model; 15 mg/kg daily, 30 days after stroke): increased the number of capillaries
Inflammatory response compared to vehicle treated control (tMCAO rat-stroke model; GFAP area, day 30): reduced inflammatory response
Infarct size / infarct volume, treatment group 2M vs control group 1M ([4]; 15 mg/kg s.c. 3 times a week for 3 weeks): significant difference; also recorded: significantly decreased the infarct volume
Average infarct size compared to untreated control group ([4]; all treatment groups (15 or 3 mg/kg s.c.)): smaller average infarct size
